Measured values: patent US20050043412A1, “Remedies for glaucoma comprising bunazosin and prostaglandins” (SANTEN PHARMACEUTICAL CO LTD, priority 2002, published 2005)
Counter-ions that a name gives are not always drawn.

Test system: intraocular pressure of cynomolgus monkeys
Assay: Effect on intraocular pressure in normal cynomolgus monkeys after topical instillation
Assay type: in vivo, cynomolgus monkeys (Macaca fascicularis)
Settings: normal cynomolgus monkey, single eye, 20 μl instillation (Detantol 0.01% bunazosin hydrochloride; Xalatan 0.005% latanoprost; combination: Xalatan 5 minutes after Detantol); IOP measured 2, 4 and 6 hours after administration
Protocol: So as to study the utility of bunazosin in combination with prostaglandin, bunazosin and prostaglandin were administered in combination to cynomolgus monkeys (Macaca fascicularis), examining the effect on intraocular pressure. Latanoprost was used as prostaglandin.
For bunazosin administration, Detantol (trade mark) ophthalmic solution, which contains bunazosin hydrochloride at 0.01%, was used. For latanoprost administration, Xalatan (trade mark) ophthalmic solution, which contains latanoprost at 0.005%, was used.
Cynomolgus monkeys were divided into four groups, a group to be dosed with a vehicle (vehicle group), a group to be dosed with bunazosin (bunazosin group), a group to be dosed with latanoprost (latanoprost group) and a group to be dosed with bunazosin and latanoprost [(bunazosin+latanoprost) group].
• 1. For topical anesthesia, a drop of 0.4% oxybuprocain hydrochloride ophthalmic solution was instilled into a single eye of each normal cynomolgus monkey. Then, intraocular pressure was measured before drug administration. • 2. […] 2, 4 and 6 hours after the administration of these test compound solutions, one drop of 0.4% oxybuprocain hydrochloride eye drops was instilled for topical anesthesia, and the intraocular pressure was measured. The maximum reduction of intraocular pressure in each group was determined by the following formula. […]

CCCC(=O)N1CCCN(c2nc(N)c3cc(OC)c(OC)cc3n2)CC1 [Bunazosin, Bunazosin hydrochloride]
Maximum reduction of intraocular pressure: 1.9 mmHg

CC(C)OC(=O)CCC/C=C\C[C@@H]1[C@@H](CC[C@@H](O)CCc2ccccc2)[C@H](O)C[C@@H]1O [Latanoprost]
Maximum reduction of intraocular pressure: 2.6 mmHg
